From patent publication US5596002A, “Method of treating chloroquine-resistant malaria with aminoquinoline derivatives” (Hoffmann-La Roche Inc., priority 1993, dated 1997)
≈ marks a conversion by molar mass, not a printed value.

Assays:
Format in all cases: cell-based
[1] = test system: Plasmodium falciparum, chloroquine-sensitive strain NF54; test: activity against P. falciparum in vitro, strain NF54; settings: Plasmodium falciparum; chloroquine-sensitive strain NF54; 48 h-72 h; read-out: IC50 (50% growth inhibition)
Experimental: (§1) Test method for the determination of the activity against P. falciparum in vitro
(§2) The preparations of the present invention were tested on intraerythrocytary stages of P. falciparum from asynchronous cultures according to the method of Desjardin et al. (Desjardins, R. E. et al: Quantitative assessment of antimalarial activity in vitro by a semiautomated microdilution technique. Antimicrob. Agents Chemother. 16, 710-718, (1979)).
(§3) The culture medium consisted of RPMI 1640 with the addition of 25 mM HEPES, 25 mM NaHCO3, […] neomycin and 10% human serum (A^+). Human-A^+ erythrocytes were used as the P. falciparum host cells. The parasites were maintained at 37° C. in an atmosphere of 3% O2, 4% CO2, 93% N2 and at 95% relative humidity.
(§4) In order to determine the activity, the preparations were dissolved in DMSO, pre-diluted in the culture medium to a suitable starting concentration and subsequently titrated-out into microtitre plates in the 2nd stage over 6-7 steps. After the addition of the parasite culture (0.7% parasitemia in 2.5% erythrocyte suspension), the test plates were incubated under the conditions given above for 48 h-72 h. The parasite growth in the different preparation concentrations was determined using [G-^3 H]-hypoxanthin incorporation compared to untreated control cultures on the same test plates. The 50% growth inhibition (IC50) was calculated according to logit regression analysis from the resulting dosage-activity curve.
(§5) The preparations were tested on at least one chloroquine-resistant and one chloroquine-sensitive P. falciparum strain. Additional sensitive and resistant strains were also included for further characterization.
(§6) Table 1 below contains the IC50 values measured in vitro for the growth inhibition of chloroquine-sensitive and chloroquine-resistant strains of the human pathogenic Plasmodium falciparum.

[2] = test system: Plasmodium falciparum, chloroquine-sensitive strain FCH5C2; test: activity against P. falciparum in vitro, strain FCH5C2; settings: chloroquine-sensitive strain FCH5C2, 48 h-72 h, read-out: IC50 (50% growth inhibition)
Experimental: as §1, §2, §3, §4, §5, §6

[3] = test system: Plasmodium falciparum, chloroquine-sensitive strain HB3; test: activity against P. falciparum in vitro, strain HB3; settings: chloroquine-sensitive strain HB3, 48 h-72 h, read-out: IC50 (50% growth inhibition)
Experimental: as §1, §2, §3, §4, §5, §6

[4] = test system: Plasmodium falciparum, chloroquine-sensitive strain RFMEF3; test: activity against P. falciparum in vitro, strain RFMEF3; settings: chloroquine-sensitive strain RFMEF3, 48 h-72 h, read-out: IC50 (50% growth inhibition)
Experimental: as §1, §2, §3, §4, §5, §6

[5] = test system: Plasmodium falciparum, chloroquine-sensitive strain Ro7 3; test: activity against P. falciparum in vitro, strain Ro7 3; settings: chloroquine-sensitive strain Ro7 3, 48 h-72 h, read-out: IC50 (50% growth inhibition)
Experimental: as §1, §2, §3, §4, §5, §6

[6] = test system: Plasmodium falciparum, chloroquine-resistant strain RFCR3; test: activity against P. falciparum in vitro, strain RFCR3; settings: chloroquine-resistant strain RFCR3, 48 h-72 h, read-out: IC50 (50% growth inhibition)
Experimental: as §1, §2, §3, §4, §5, §6

[7] = test system: Plasmodium falciparum, chloroquine-resistant strain ItG2 F6; test: activity against P. falciparum in vitro, strain ItG2 F6; settings: chloroquine-resistant strain ItG2 F6, 48 h-72 h, read-out: IC50 (50% growth inhibition)
Experimental: as §1, §2, §3, §4, §5, §6

[8] = test system: Plasmodium falciparum, chloroquine-resistant strain Indo; test: activity against P. falciparum in vitro, strain Indo; settings: chloroquine-resistant strain Indo, 48 h-72 h, read-out: IC50 (50% growth inhibition)
Experimental: as §1, §2, §3, §4, §5, §6

[9] = test system: Plasmodium falciparum, chloroquine-resistant strain K1; test: activity against P. falciparum in vitro, strain K1; settings: Plasmodium falciparum; chloroquine-resistant strain K1; 48 h-72 h; read-out: IC50 (50% growth inhibition)
Experimental: as §1, §2, §3, §4, §5, §6

[10] = test system: Plasmodium falciparum, chloroquine-resistant strain W2; test: activity against P. falciparum in vitro, strain W2; settings: chloroquine-resistant strain W2, 48 h-72 h, read-out: IC50 (50% growth inhibition)
Experimental: as §1, §2, §3, §4, §5, §6

[11] = test system: Plasmodium falciparum, chloroquine-resistant strain 7G8; test: activity against P. falciparum in vitro, strain 7G8; settings: chloroquine-resistant strain 7G8, 48 h-72 h, read-out: IC50 (50% growth inhibition)
Experimental: as §1, §2, §3, §4, §5, §6

[12] = test system: Plasmodium falciparum, chloroquine-resistant strain W2 Mef; test: activity against P. falciparum in vitro, strain W2 Mef; settings: 48 h-72 h, read-out: IC50 (50% growth inhibition)
Experimental: as §1, §2, §3, §4, §5, §6

Row | SMILES | IC50 [1] | IC50 [2] | IC50 [3] | IC50 [4] | IC50 [5] | IC50 [6] | IC50 [7] | IC50 [8] | IC50 [9] | IC50 [10] | IC50 [11] | IC50 [12]
1 | CC(CN1CCCC1)Nc1ccnc2cc(Cl)ccc12 (racemic) [Example 3, (RS)-(7-Chloro-quinolin-4-yl)-(1-methyl-2-pyrrolidin-1-yl-ethyl)-amine] | 7 ng/mL (≈ 0.0242 µM) | 7 ng/mL (≈ 0.0242 µM) | 5 ng/mL (≈ 0.0173 µM) | 7 ng/mL (≈ 0.0242 µM) | 4 ng/mL (≈ 0.0138 µM) | 0.008 µg/mL (≈ 0.0276 µM) | 5 ng/mL (≈ 0.0173 µM) | 6 ng/mL (≈ 0.0207 µM) | 0.012 µg/mL (≈ 0.0414 µM) | 0.007 µg/mL (≈ 0.0242 µM) | 7 ng/mL (≈ 0.0242 µM) | 0.011 µg/mL (≈ 0.038 µM)
2 | CC(CN1CCCCC1)Nc1ccnc2cc(Cl)ccc12 (racemic) [Example 4, (RS)-(7-Chloro-quinolin-4-yl)-(1-methyl-2-piperidin-1-yl-ethyl)-amine] | 7 ng/mL (≈ 0.023 µM) | 8 ng/mL (≈ 0.0263 µM) | 8 ng/mL (≈ 0.0263 µM) | 7 ng/mL (≈ 0.023 µM) | 4 ng/mL (≈ 0.0132 µM) | 0.009 µg/mL (≈ 0.0296 µM) | 5 ng/mL (≈ 0.0165 µM) | 8 ng/mL (≈ 0.0263 µM) | 0.015 µg/mL (≈ 0.0494 µM) | 0.015 µg/mL (≈ 0.0494 µM) | 7 ng/mL (≈ 0.023 µM) | 0.014 µg/mL (≈ 0.0461 µM)
3 | CC1CCCN(CCNc2ccnc3cc(Cl)ccc23)C1 (racemic) [Example 23, (RS)-(7-Chloro-quinolin-4-yl)-[2-(3-methyl-piperidin-1-yl)-ethyl]-amine] | 6 ng/mL (≈ 0.0197 µM) | 6 ng/mL (≈ 0.0197 µM) | 7 ng/mL (≈ 0.023 µM) | 7 ng/mL (≈ 0.023 µM) | 4 ng/mL (≈ 0.0132 µM) | 0.01 µg/mL (≈ 0.0329 µM) | 6 ng/mL (≈ 0.0197 µM) | 8 ng/mL (≈ 0.0263 µM) | 0.015 µg/mL (≈ 0.0494 µM) | 0.015 µg/mL (≈ 0.0494 µM) | 8 ng/mL (≈ 0.0263 µM) | 0.013 µg/mL (≈ 0.0428 µM)
4 | CC1CCCCN1CCNc1ccnc2cc(Cl)ccc12 (racemic) [Example 26, (RS)-(7-Chloro-quinolin-4-yl)-[2-(2-methyl-piperidin-1-yl) -ethyl]-amine] | 7 ng/mL (≈ 0.023 µM) | 8 ng/mL (≈ 0.0263 µM) | 8 ng/mL (≈ 0.0263 µM) | 9 ng/mL (≈ 0.0296 µM) | 5 ng/mL (≈ 0.0165 µM) | 0.008 µg/mL (≈ 0.0263 µM) | 6 ng/mL (≈ 0.0197 µM) | 9 ng/mL (≈ 0.0296 µM) | 0.015 µg/mL (≈ 0.0494 µM) | 0.015 µg/mL (≈ 0.0494 µM) | 8 ng/mL (≈ 0.0263 µM) | 0.013 µg/mL (≈ 0.0428 µM)
5 | CCC1CCCCN1CCNc1ccnc2cc(Cl)ccc12 (racemic) [Example 27, (RS)-(7-Chloro-quinolin-4-yl)-[2-(2-ethyl-piperidin-1-yl)-ethyl]amine] | 8 ng/mL (≈ 0.0252 µM) | 10 ng/mL (≈ 0.0315 µM) | 9 ng/mL (≈ 0.0283 µM) | 7 ng/mL (≈ 0.022 µM) | 3 ng/mL (≈ 0.00944 µM) | 0.015 µg/mL (≈ 0.0472 µM) | 7 ng/mL (≈ 0.022 µM) | 9 ng/mL (≈ 0.0283 µM) | 0.018 µg/mL (≈ 0.0566 µM) | 0.019 µg/mL (≈ 0.0598 µM) | 7 ng/mL (≈ 0.022 µM) | 0.014 µg/mL (≈ 0.044 µM)
6 | Clc1ccc2c(NCCN3CCCCC3)ccnc2c1 [Example 8, (7-Chloro-quinolin-4-yl)-(2-piperidin-1-yl-ethyl)-amine] | 5 ng/mL (≈ 0.0173 µM) | 9 ng/mL (≈ 0.0311 µM) | 7 ng/mL (≈ 0.0242 µM) | 9 ng/mL (≈ 0.0311 µM) | 4 ng/mL (≈ 0.0138 µM) | 0.01 µg/mL (≈ 0.0345 µM) | 4 ng/mL (≈ 0.0138 µM) | 5 ng/mL (≈ 0.0173 µM) | 0.011 µg/mL (≈ 0.038 µM) | 0.011 µg/mL (≈ 0.038 µM) | 7 ng/mL (≈ 0.0242 µM) | 0.009 µg/mL (≈ 0.0311 µM)
7 | CCN1CCCC1CNc1ccnc2cc(Cl)ccc12 (stereo not drawn) [Example 12, (7-Chloro-quinolin-4-yl)-(1-ethyl-pyrrolidin-2-yl-methyl)-amine] | 6 ng/mL (≈ 0.0207 µM) | 9 ng/mL (≈ 0.0311 µM) | 7 ng/mL (≈ 0.0242 µM) | 8 ng/mL (≈ 0.0276 µM) | 7 ng/mL (≈ 0.0242 µM) | 0.015 µg/mL (≈ 0.0518 µM) | 8 ng/mL (≈ 0.0276 µM) | 12 ng/mL (≈ 0.0414 µM) | 0.01 µg/mL (≈ 0.0345 µM) | 0.015 µg/mL (≈ 0.0518 µM) | 15 ng/mL (≈ 0.0518 µM) | 0.009 µg/mL (≈ 0.0311 µM)
